Values quoted from earlier work in publication PMC5611894 (Journal of Alzheimer's Disease, 2017).

What was measured:
Aβ42 oligomers = details: SPR equilibrium binding, Aβ42 oligomers immobilized on chip
Aβ42 monomers = details: SPR equilibrium binding, Aβ42 monomers immobilized on chip

For `CC[C@]12C=CCN3CC[C@]4(C(=C(C(=O)OC)C1)Nc1ccccc14)[C@@H]32` [tabersonine], the Kd (Aβ42 oligomers) is given as 535 µM and the Kd (Aβ42 monomers) is given as 69 µM.
